Marks after values point to notes of the source that are not given here.

One data set concerns SK-MEL-28 melanoma cells. The experiment in a line: HPLC/MS analyses of MTX, TMECG-QM and DHF in whole cell extracts. The class given is cell-based, human. To be noted: SK-MEL-28 whole cell extracts, 24 h, MTX 1 μM and/or TMECG 10 μM. Here is the method:
By way of example, the present inventors have shown that an active agent, such as MTX, may be used to increase TYR expression, thereby increasing the conversion of a catechin to its quinone methide form. The inventors have undertaken HPLC analyses of MTX, TMECG-QM, and DHF in whole cell extracts of SK-MEL-28 melanoma cells that were subjected to MTX (1 μM) and TMECG (10 μM) individual and combined treatments (see Table 1).

Another data set concerns Caco-2. The experiment in a line: HPLC/MS/MS intracellular levels of MTX in Caco-2. The class given is cell-based. To be noted: Caco-2, same MTX treatment (24 h, 1 μM).
The next data set relates to SK-MEL-28 cells. The experiment in a line: Proliferation assay, SK-MEL-28. Format: cell-based, human. To be noted: SK-MEL-28, MTX alone.
Data set [1] concerns melanoma cells (SK-MEL-28). The experiment in a line: dNTP pool extraction and analysis. The class given is cell-based, human. Here is the method:
FIGS. 2A-N. MTX and TMECG combination therapy induces apoptosis via dTTP depletion and DNA-damage. A, Intracellular accumulation of TMECG-QM in SK-MEL-28 treated with TMECG or MTX/TMECG for 24 h. B, Proliferation assays performed of control or MTX/TMECG-treated ([…]) SK-MEL-28 cells. C, Quantification of effects of MTX/TMECG treatment on SK-MEL-28 cells (*P<0.05 with respect to TMECG-treated cells). For time course assay MTX (1 μM) and TMECG (10 μM) were used. D, dNTP quantification in melanoma cells subjected to indicated treatments (*P<0.05). E, SK-MEL-28 cells treated with MTX/TMECG for the indicated times were examined by immunofluorescence for γH2AX foci (red) and DAPI (blue) (left panels), or by WB (right panels). β-actin served as a protein loading control. F, apoptosis determination at different MTX/TMECG combinations in SK-MEL-28 cells after 4 days of treatment. Data were obtained in triplicate in two independent experiments. Differences in apoptosis in MTX/TMECG treated cells were significant with respect to individual treatments for each drug concentration (p<0.05). […] K, quantification of γH2AX foci in SK-MEL-28 cells treated with MTX (1 μM) and/or TMECG (10 μM), or X-rays. […] N, Cell cycle profile determined by flow cytometry of SK-MEL-28 cells treated with a sublethal dose of MTX/TMECG. […]

Experimental for SK-MEL-28 cells: B, Proliferation assays performed of control or MTX/TMECG-treated (10 μM/1 μM) SK-MEL-28 cells. […] For time course assay MTX (1 μM) and TMECG (10 μM) were used. […] Data were obtained in triplicate in two independent experiments. […] H, effects of MTX/TMECG (1 μM/10 μM) on cell number of indicated cell lines. Error bars show mean±SD. […] Error bars show mean±SD.
Melanoma cell lines of human and mouse origin were obtained from ATCC and maintained in the appropriate culture medium supplemented with 10% FBS and antibiotics. Cell viability was evaluated using the 3-(4,5-dimethylthiazol-2-yl)-2,5-diphenyltetrazolium bromide (MTT) cell proliferation assay.

`CN(Cc1cnc2nc(N)nc(N)c2n1)c1ccc(C(=O)N[C@@H](CCC(=O)O)C(=O)O)cc1` [MTX, methotrexate]: the MTX intracellular concentration in the data set with SK-MEL-28 melanoma cells is on record as <0.001* pmol/10^6 cells. Moreover, the “intracellular levels of MTX” value in the data set with Caco-2 came out at 0.8 ± 0.3 pmol/106 cells. Moreover, the proliferation result with SK-MEL-28 cells is listed as “reduced proliferation”. For the same molecule, in data set [1], the dTTP levels result is listed as “increased dTTP levels”.
